Results taken from PubChem BioAssay (NCI).
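At the GI50, growth is halved. TGI: total growth inhibition.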

Experiments:
Assay in all cases: NCI anticancer screen, dose series, 384-well format
HCT-116 colon = test system: HCT-116 colon
SK-MEL-28 melanoma = test system: SK-MEL-28 melanoma
SF-268 CNS = test system: SF-268 CNS
MDA-MB-435 melanoma = test system: MDA-MB-435 melanoma
SNB-75 CNS = test system: SNB-75 CNS
HOP-62 NSCLC = test system: HOP-62 NSCLC
OVCAR-4 ovarian = test system: OVCAR-4 ovarian
NCI/ADR-RES ovarian = test system: NCI/ADR-RES ovarian
SN12C renal = test system: SN12C renal
U251 glioblastoma = test system: U251 glioblastoma
NCI-H460 NSCLC = test system: NCI-H460 NSCLC
BT-549 breast = test system: BT-549 breast
MOLT-4 leukemia = test system: MOLT-4 leukemia
OVCAR-5 ovarian = test system: OVCAR-5 ovarian
A498 renal = test system: A498 renal
MALME-3M melanoma = test system: MALME-3M melanoma
RXF 393 renal = test system: RXF 393 renal
HT29 colon = test system: HT29 colon
SW-620 colon = test system: SW-620 colon
UACC-257 melanoma = test system: UACC-257 melanoma
NCI-H23 lung = test system: NCI-H23 lung
786-0 renal = test system: 786-0 renal
SNB-19 CNS = test system: SNB-19 CNS
NCI-H322M lung = test system: NCI-H322M lung
A549 NSCLC = test system: A549 NSCLC
SR leukemia = test system: SR leukemia
EKVX NSCLC = test system: EKVX NSCLC
SK-MEL-2 melanoma = test system: SK-MEL-2 melanoma
HCT-15 colon = test system: HCT-15 colon
NCI-H226 lung = test system: NCI-H226 lung
TK-10 renal = test system: TK-10 renal
NCI-H522 lung = test system: NCI-H522 lung
UACC-62 melanoma = test system: UACC-62 melanoma
COLO 205 colon = test system: COLO 205 colon
HOP-92 NSCLC = test system: HOP-92 NSCLC
MCF7 breast = test system: MCF7 breast
K-562 leukemia = test system: K-562 leukemia
UO-31 renal = test system: UO-31 renal
PC-3 prostate = test system: PC-3 prostate
LOX IMVI melanoma = test system: LOX IMVI melanoma
SK-MEL-5 melanoma = test system: SK-MEL-5 melanoma
M14 melanoma = test system: M14 melanoma
MDA-MB-468 breast = test system: MDA-MB-468 breast
SK-OV-3 ovarian = test system: SK-OV-3 ovarian
OVCAR-3 ovarian = test system: OVCAR-3 ovarian
MDA-MB-231 breast = test system: MDA-MB-231 breast
KM12 colon = test system: KM12 colon

Compound: CC1(N)CCN(c2cnc(-c3cccc(Cl)c3Cl)c(N)n2)CC1
- GI50 (HCT-116 colon): 17.2 µM
- TGI (HCT-116 colon): 32.1 µM
- GI50 (SK-MEL-28 melanoma): 16.7 µM
- TGI (SK-MEL-28 melanoma): 30.5 µM
- GI50 (SF-268 CNS): 18.6 µM
- TGI (SF-268 CNS): 53.4 µM
- GI50 (MDA-MB-435 melanoma): 22.8 µM
- TGI (MDA-MB-435 melanoma): 48 µM
- GI50 (SNB-75 CNS): 12.3 µM
- TGI (SNB-75 CNS): 38.2 µM
- GI50 (HOP-62 NSCLC): 24.3 µM
- TGI (HOP-62 NSCLC): > 74 µM
- GI50 (OVCAR-4 ovarian): 14 µM
- TGI (OVCAR-4 ovarian): > 77.1 µM
- GI50 (NCI/ADR-RES ovarian): 17.9 µM
- TGI (NCI/ADR-RES ovarian): > 71.1 µM
- GI50 (SN12C renal): 5.63 µM
- TGI (SN12C renal): 42.7 µM
- GI50 (U251 glioblastoma): 13.5 µM
- TGI (U251 glioblastoma): 27.4 µM
- GI50 (NCI-H460 NSCLC): 18.1 µM
- TGI (NCI-H460 NSCLC): 33.3 µM
- GI50 (BT-549 breast): 10.6 µM
- TGI (BT-549 breast): 24 µM
- GI50 (MOLT-4 leukemia): 16.3 µM
- TGI (MOLT-4 leukemia): 30.7 µM
- GI50 (OVCAR-5 ovarian): 15.7 µM
- TGI (OVCAR-5 ovarian): 47.6 µM
- GI50 (A498 renal): 4.27 µM
- TGI (A498 renal): 19.7 µM
- GI50 (MALME-3M melanoma): 14.8 µM
- TGI (MALME-3M melanoma): 28 µM
- GI50 (RXF 393 renal): 12.2 µM
- TGI (RXF 393 renal): 25.5 µM
- GI50 (HT29 colon): 18 µM
- TGI (HT29 colon): 34.7 µM
- GI50 (SW-620 colon): 7.58 µM
- TGI (SW-620 colon): > 50.4 µM
- GI50 (UACC-257 melanoma): 16.4 µM
- TGI (UACC-257 melanoma): 30.1 µM
- GI50 (NCI-H23 lung): 3.66 µM
- TGI (NCI-H23 lung): 23.4 µM
- GI50 ([…]-0 renal): 11.1 µM
- TGI (786-0 renal): 24 µM
- GI50 (SNB-19 CNS): 11.9 µM
- TGI (SNB-19 CNS): > 74.3 µM
- GI50 (NCI-H322M lung): 3.73 µM
- TGI (NCI-H322M lung): 47.2 µM
- GI50 (A549 NSCLC): 30.1 µM
- TGI (A549 NSCLC): > 100 µM
- GI50 (SR leukemia): 7.14 µM
- TGI (SR leukemia): 20.3 µM
- GI50 (EKVX NSCLC): 8.83 µM
- TGI (EKVX NSCLC): 30.8 µM
- GI50 (SK-MEL-2 melanoma): 13.7 µM
- TGI (SK-MEL-2 melanoma): 26.6 µM
- GI50 (HCT-15 colon): 16.6 µM
- TGI (HCT-15 colon): 33.5 µM
- GI50 (NCI-H226 lung): 8.68 µM
- TGI (NCI-H226 lung): 46.6 µM
- GI50 (TK-10 renal): 8.25 µM
- TGI (TK-10 renal): 25 µM
- GI50 (NCI-H522 lung): 2.64 µM
- TGI (NCI-H522 lung): 19.2 µM
- GI50 (UACC-62 melanoma): 18.7 µM
- TGI (UACC-62 melanoma): 32.9 µM
- GI50 (COLO 205 colon): 21.3 µM
- TGI (COLO 205 colon): 41.5 µM
- GI50 (HOP-92 NSCLC): 1.02 µM
- TGI (HOP-92 NSCLC): 8.17 µM
- GI50 (MCF7 breast): 15.5 µM
- TGI (MCF7 breast): 29.7 µM
- GI50 (K-562 leukemia): 0.783 µM
- TGI (K-562 leukemia): 14.4 µM
- GI50 (UO-31 renal): 14.2 µM
- TGI (UO-31 renal): > 100 µM
- GI50 (PC-3 prostate): 21.4 µM
- TGI (PC-3 prostate): > 60.4 µM
- GI50 (LOX IMVI melanoma): 17.1 µM
- TGI (LOX IMVI melanoma): 31 µM
- GI50 (SK-MEL-5 melanoma): 15.3 µM
- TGI (SK-MEL-5 melanoma): 28.7 µM
- GI50 (M14 melanoma): 17.6 µM
- TGI (M14 melanoma): 31.5 µM
- GI50 (MDA-MB-468 breast): 0.898 µM
- TGI (MDA-MB-468 breast): 5.96 µM
- GI50 (SK-OV-3 ovarian): 10.2 µM
- TGI (SK-OV-3 ovarian): 24.9 µM
- GI50 (OVCAR-3 ovarian): 13.6 µM
- TGI (OVCAR-3 ovarian): 45.3 µM
- GI50 (MDA-MB-231 breast): 20.2 µM
- TGI (MDA-MB-231 breast): 49.6 µM
- GI50 (KM12 colon): 6.2 µM
- TGI (KM12 colon): 20 µM
